Biological target: Multidrug resistance protein 1a (Rattus norvegicus) (UniProt Q6PSM0)
Assay: TP_TRANSPORTER: serosal to mucosal transport in SD rat intestinal segment
Type: functional
Conditions: Sprague-Dawley, Intestine

Chain of Multidrug resistance protein 1a (Rattus norvegicus) (Q6PSM0 as listed by the source): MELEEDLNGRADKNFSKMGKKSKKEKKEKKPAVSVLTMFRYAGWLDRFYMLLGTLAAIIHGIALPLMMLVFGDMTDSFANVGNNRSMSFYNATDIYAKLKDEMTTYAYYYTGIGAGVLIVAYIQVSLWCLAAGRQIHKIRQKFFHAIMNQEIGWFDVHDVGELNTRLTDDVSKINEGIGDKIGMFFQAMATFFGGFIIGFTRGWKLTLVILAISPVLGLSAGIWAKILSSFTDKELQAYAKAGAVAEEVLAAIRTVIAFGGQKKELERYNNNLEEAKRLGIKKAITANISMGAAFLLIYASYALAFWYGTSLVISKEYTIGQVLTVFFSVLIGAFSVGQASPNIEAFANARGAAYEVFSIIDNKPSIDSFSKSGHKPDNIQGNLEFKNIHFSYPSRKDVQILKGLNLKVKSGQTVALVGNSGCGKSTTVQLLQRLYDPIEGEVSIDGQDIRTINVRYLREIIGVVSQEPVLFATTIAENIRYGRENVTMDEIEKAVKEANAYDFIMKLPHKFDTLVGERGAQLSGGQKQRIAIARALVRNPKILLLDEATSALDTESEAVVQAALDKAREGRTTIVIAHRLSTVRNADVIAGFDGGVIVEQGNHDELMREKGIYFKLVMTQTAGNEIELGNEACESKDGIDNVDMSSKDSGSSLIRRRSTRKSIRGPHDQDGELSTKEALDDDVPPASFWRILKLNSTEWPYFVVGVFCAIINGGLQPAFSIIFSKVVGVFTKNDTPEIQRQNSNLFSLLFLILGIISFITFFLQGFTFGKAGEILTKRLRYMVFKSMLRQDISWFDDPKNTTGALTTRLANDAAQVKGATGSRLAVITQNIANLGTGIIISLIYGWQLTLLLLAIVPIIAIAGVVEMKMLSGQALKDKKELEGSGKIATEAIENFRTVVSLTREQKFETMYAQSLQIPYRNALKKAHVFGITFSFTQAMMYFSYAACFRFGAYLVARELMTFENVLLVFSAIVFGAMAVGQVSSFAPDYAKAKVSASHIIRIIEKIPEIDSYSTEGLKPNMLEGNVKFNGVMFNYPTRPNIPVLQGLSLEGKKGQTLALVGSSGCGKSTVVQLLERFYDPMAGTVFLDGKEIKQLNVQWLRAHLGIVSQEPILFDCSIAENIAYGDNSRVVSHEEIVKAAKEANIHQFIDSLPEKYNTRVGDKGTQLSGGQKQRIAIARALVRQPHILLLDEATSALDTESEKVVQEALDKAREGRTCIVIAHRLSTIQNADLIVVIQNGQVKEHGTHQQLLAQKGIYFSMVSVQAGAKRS

Activity	Compound
substrate [+]	CC(C)[N+](C)(CCOC(=O)C1c2ccccc2Oc2ccccc21)C(C)C
substrate [+]	COc1ccc(CCN(C)CCCC(C#N)(c2ccc(OC)c(OC)c2)C(C)C)cc1OC (configuration not stated)

— ChEMBL document CHEMBL2074172, “Possible involvement of multiple P-glycoprotein-mediated efflux systems in the transport of verapamil and other organic cations across rat intestine” (Pharm Res, 1995)
